Assays:
Format in all cases: functional
[1] = Growth inhibition of human SNB75 cells at 10 uM after 48 hrs by sulforhodamine B assay; details: SNB-75, 48 h, values are per cent of control
Malme-3M = assay: Growth inhibition of human MALME-3M cells at 10 uM after 48 hrs by sulforhodamine B assay; details: values are per cent of control
SK-MEL-2 = assay: Growth inhibition of human SK-MEL-2 cells at 10 uM after 48 hrs by sulforhodamine B assay; details: SK-MEL-2, 48 h, values are per cent of control
SK-MEL-28 = assay: Growth inhibition of human SK-MEL-28 cells at 10 uM after 48 hrs by sulforhodamine B assay; details: SK-MEL-28, 48 h, values are per cent of control
[2] = Growth inhibition of human UACC257 cells at 10 uM after 48 hrs by sulforhodamine B assay; details: UACC-257, 48 h, values are per cent of control
[3] = Growth inhibition of human IGROV1 cells at 10 uM after 48 hrs by sulforhodamine B assay; details: IGROV-1, 48 h, values are per cent of control
[4] = Growth inhibition of human OVCAR3 cells at 10 uM after 48 hrs by sulforhodamine B assay; details: OVCAR-3, 48 h, values are per cent of control
786-0 = assay: Growth inhibition of human 786-0 cells at 10 uM after 48 hrs by sulforhodamine B assay; details: 786-0, 48 h, values are per cent of control
[5] = Growth inhibition of human RXF393 cells at 10 uM after 48 hrs by sulforhodamine B assay; details: RXF 393, 48 h, values are per cent of control
[6] = Growth inhibition of human UO31 cells at 10 uM after 48 hrs by sulforhodamine B assay; details: UO-31, 48 h, values are per cent of control
[7] = Growth inhibition of human PC3 cells at 10 uM after 48 hrs by sulforhodamine B assay; details: PC-3, 48 h, values are per cent of control
MCF7 = assay: Growth inhibition of human MCF7 cells at 10 uM after 48 hrs by sulforhodamine B assay; details: MCF7, 48 h, values are per cent of control
CCRF-CEM = assay: Growth inhibition of human CCRF-CEM cells at 10 uM after 48 hrs by sulforhodamine B assay; details: values are per cent of control
[8] = Growth inhibition of human HL-60(TB) cells at 10 uM after 48 hrs by sulforhodamine B assay; details: HL-60, 48 h, values are per cent of control
[9] = Growth inhibition of human MOLT4 cells at 10 uM after 48 hrs by sulforhodamine B assay; details: MOLT-4, 48 h, values are per cent of control
[10] = Growth inhibition of human RPMI8226 cells at 10 uM after 48 hrs by sulforhodamine B assay; details: RPMI-8226, 48 h, values are per cent of control
[11] = Growth inhibition of human HOP62 cells at 10 uM after 48 hrs by sulforhodamine B assay; details: HOP-62, 48 h, values are per cent of control
[12] = Growth inhibition of human HOP92 cells at 10 uM after 48 hrs by sulforhodamine B assay; details: HOP-92, 48 h, values are per cent of control
[13] = Growth inhibition of human HCC2998 cells at 10 uM after 48 hrs by sulforhodamine B assay; details: HCC 2998, 48 h, values are per cent of control

Row | SMILES | growth, % of control at 10 µM [1] [%] | growth, % of control at 10 µM (Malme-3M) [%] | growth, % of control at 10 µM (SK-MEL-2) [%] | growth, % of control at 10 µM (SK-MEL-28) [%] | growth, % of control at 10 µM [2] [%] | growth, % of control at 10 µM [3] [%] | growth, % of control at 10 µM [4] [%] | growth, % of control at 10 µM (786-0) [%] | growth, % of control at 10 µM [5] [%] | growth, % of control at 10 µM [6] [%] | growth, % of control at 10 µM [7] [%] | growth, % of control at 10 µM (MCF7) [%] | growth, % of control at 10 µM (CCRF-CEM) [%] | growth, % of control at 10 µM [8] [%] | growth, % of control at 10 µM [9] [%] | growth, % of control at 10 µM [10] [%] | growth, % of control at 10 µM [11] [%] | growth, % of control at 10 µM [12] [%] | growth, % of control at 10 µM [13] [%]
1 | COc1ccc(/C=C(\C#N)c2ccc3c(c2)OCO3)cn1 | 57 | 90.6 | 93.2 | 95.1 | 89.4 | 90.6 | 100 | 107 | 86.5 | 82.3 | 77.9 | 83.5 | 87.7 | 70.8 | 71.5 | 73.2 | 88.1 | 64.9 | 93.2
2 | N#C/C(=C\c1ccc2c(c1)OCO2)c1ccc2c(c1)OCO2 | 94.3 | 69 | 63.5 | 88.5 | 80.2 | 66.1 | 71.7 | 90 | 94.7 | 86.7 | 70.2 | 23.9 | 73.2 | 57.9 | 67.7 | 75.2 | 76.7 | 94.2 | 72.3
3 | N#C/C(=C\c1ccc(Cl)cc1Cl)c1ccc2c(c1)OCO2 | 76.2 | 76.4 | 98.9 | 98.3 | 93.8 | 97.9 | 98.4 | 91.4 | 101 | 75.1 | 93.4 | 110 | 93.3 | 87.3 | 79.2 | 84.6 | 88 | 99.9 | 94.8

Source: ChEMBL document CHEMBL3792365, “Dioxol and dihydrodioxin analogs of 2- and 3-phenylacetonitriles as potent anti-cancer agents with nanomolar activity against a variety of human cancer cells” (2016)
